Results on two compounds are retold here after US7871960B2, “1-(Imidazolin-2-yl)amino-1,2-diphenylethane compounds for combating animal pests” (BASF SE, priority 2005, dated 2011).

Structures can show the parent of a compound that is named as a salt.

The subject of one series is Megoura viciae. Nature of the series: Vetch aphid (Megoura viciae) mortality on sprayed bean leaf disks in microtiterplates. Conditions: foliar, 144 h, bean leaf disks sprayed with 2.5 μl, 6 days, read-out: mortality in comparison with untreated controls. It is filed as in vivo. The method, then: The active compounds were formulated in 1:3 DMSO:water. Bean leaf disks were placed into microtiterplates filled with 0.8% agar-agar and 2.5 ppm OPUS™. The leaf disks were sprayed with 2.5 μl of the test solution and 5 to 8 adult aphids were placed into the microtiterplates which were then closed and kept at 22-24° C. and 35-45% under fluorescent light for 6 days. Mortality was assessed on the basis of vital, reproduced aphids. Tests were replicated 2 times.

Broadly, the melting point is the temperature, or range, at which the solid turns liquid. Compound `Clc1cccc(CC(N=C2NCCN2)c2ccccc2)c1` (centres unmarked) (as salt: salt) [Example 1.1, [2-(3-Chloro-phenyl)-1-phenyl-ethyl]-(4,5-dihydro-1H-imidazol-2-yl)-amine hydroiodide] had a melting point of 162 to 164 °C.

Broadly, the mortality is the percentage killed. Take `CC(=O)N1CCN=C1NC(Cc1ccccc1)c1ccccc1` (centres unmarked) [Example 2.1, 1-[2-(1,2-Diphenylethylamino)-4,5-dihydroimidazol-1-yl]-ethanone]: the mortality at 2500 ppm in the series with Megoura viciae is more than 80%.
